Assay [1] has as its system mice. As to the kind of experiment: tail-flick test in mice. The note with it: Mus musculus, sc, 0.5 h, subcutaneous; calculated as the free base; 30 min pretreatment. Type of assay: in vivo, mouse (male Charles River, Swiss Strain). The protocol:
(B) Tail-flick test in mice
The methodology employed is based on that described by D'Amour and Smith, J. Pharmacol. Exp. Ther. 72, 74/1941.
Male Charles River mice (Swiss Strain), 22-34g body weight were used. Animals were allowed food and water ad libitum and were randomized into groups of 10 prior to experimentation.
Test compounds were dissolved in either distilled water or distilled water plus 0.1 M AMS and administered by the subcutaneous route in a final volume of 10 ml/Kg. Control animals received 10 ml/kg of the appropriate vehicle alone. Following a pretreatment period of 30 min., the mice were again placed under the heat source and the reaction tine re-determined.
Percentage quantal protection was determined as the number of mice in which the reaction time was doubled compared to pretreatment values, expressed as a percentage of the total number of mice in the group.

Assay [2] addresses T1, KAPPA opiate receptor (Cavia porcellus, UniProt P41144).
T1 construct: fresh guinea pig brain homogenate; from tissue; host or cells: guinea pig whole brain without cerebellum, fresh homogenate
Kind of assay: opiate receptors binding, KAPPA (3H-Ethyl Ketocyclazocine, guinea pig brain homogenate). The protocol: Radio receptor binding to μ and K sites is performed on fresh guinea pig brain homogenate prepared according to Kosterlitz. (1981).
(§1) Whole brain without cerebellum is homogenized in 50 mM, Tris-buffer (pH 7.4 at 0° C.) and centrifuged at 49,000×g×10 min.
The pellet is then resuspended in the same buffer, incubated at 37° C. for 45 min. and centrifuged again. 1.9ml of the final homogenate (1:100 in Tris-pH 7.4, 0° C.) is used for the binding assay. Binding to […] sites (Magnan J., 1982) 1 3H [D-Ala2, MePhe4, Gly-o15]Enkephalin (3H-DAGO), an
is determined in the presence of 10-6M Naloxone. 1 Binding to K sites (Magnan J., 1982)
The binding to the K-sites is performed using 3H-Ethyl Ketocyclazocine, a non-selective benzomorphan compound which binds to μ, δ and K-sites, in the presence of 100nM of unlabelled DAGO and 100nM of the enkephalin analogue [DAla^2 -DLeu^5 ]Enkephalin (DADLE), to prevent μ and δ binding respectively.
Final homogenate with solutions of the cold ligand and of the labelled ligand is incubated for 40 min. at 25° C., filtered through Whatman GF/C glass filter discs and washed.
The radioactivity bound to the filters is counted by liquid scintillation spectrophotometry.
The non-specific binding is determined in the presence of 500nM of the benzomorphan non-selective compound Mr 2266.
The equilibrium dissociation constant (KD) and the maximum binding capacity (Bmax) are determined from the analysis of saturation curves, while the inhibition constant (Ki) is determined from the analysis of competition experiments (Hill 1910; Scatchard 1949; Cheng and Prusoff 1973; Gillan et al. 1980).

In assay [3] the test system is mice. As to the kind of experiment: p-phenylquinone-induced abdominal writhing test in mice. Type of assay: in vivo, mouse (male Charles River, Swiss Strain). The note with it: Mus musculus, sc, 20 min; subcutaneous; calculated as the free base; 20 min pretreatment, p-phenylquinone 2 mg/Kg i.p. The protocol:
(A) P-phenylquinone-induced abdominal writhing test in mice
The methodology employed is based on that described by Sigmund et al, Proc. Soc. Exptl. Biol. 95, 729/1957, modified by Milne and Twomey, Agents and Actions, 10, 31/1980.
Male Charles River mice (Swiss Strain), 25-36g body weight, were used. Animals were allowed food and water ad libitum and were randomized into groups of 10 prior to experimentation. Test compounds were dissolved in either distilled water or distilled water plus 0.1 M AMS, and administered by the subcutaneous route in a final volume of 10 ml/Kg. Control animals received 10 ml/Kg of the appropriate vehicle alone. Following a pretreatment period of 20 min., mice were injected intraperitoneally with p-phenylquinone, 2 mg/Kg at 37° C. in a final volume of […]. […] During this period the number of abdominal writhing responses per animal were recorded where writhing consists of an intermittent contraction of the abdomen associated with hind leg extension.
The degree of antinociceptive protection afforded by the test compound was determined as the mean number of writhing responses observed in the treated group (T) expressed as a percentage of the mean number of writhing responses in the control group (C) according to the following formula:
[1-(T/C]×100%=% graded protection

In assay [4] the target is T2, MU opiate receptor (Cavia porcellus, UniProt A0ACM8Q262).
T2 construct: 3H-DAGO displacement
Kind of assay: opiate receptors binding, MU (3H-DAGO, guinea pig brain homogenate). The protocol:
Radio receptor binding to μ and K sites is performed on fresh guinea pig brain homogenate prepared according to Kosterlitz.
as §1
The pellet is then resuspended in the same buffer, incubated at 37° C. for 45 min. and centrifuged again. 1.9ml of the final homogenate (1:100 in Tris-pH 7.4, 0° C.) is used for the binding assay.
The filters are then dryed, solubilized in Filtercount and the radioactivity monitored. Non specific binding
is determined in the presence of 10-6M Naloxone.

The mark [5] stands for this setting: fresh guinea pig brain homogenate, 3H-Ethyl Ketocyclazocine with 100nM DAGO and 100nM DADLE, 25° C., 40 min, read-out: OPIATE RECEPTORS BINDING KAPPA Ki.
[6] abbreviates: read-out: OPIATE RECEPTORS BINDING MU Ki, fresh guinea pig brain homogenate, 25° C., 40 min.
The mark [7] stands for this setting: fresh guinea pig brain homogenate, 25° C., 40 min, read-out: OPIATE RECEPTORS BINDING MU Ki.

Counter-ions that a name gives are not always drawn. Like-named read-outs stand apart in the source and are kept apart here.

By ED50 is commonly meant the midpoint of the dose-response relation. What is called Ki is a measure of affinity in units of concentration, obtained from inhibition or displacement.

T1 sequence (P41144 whole entry): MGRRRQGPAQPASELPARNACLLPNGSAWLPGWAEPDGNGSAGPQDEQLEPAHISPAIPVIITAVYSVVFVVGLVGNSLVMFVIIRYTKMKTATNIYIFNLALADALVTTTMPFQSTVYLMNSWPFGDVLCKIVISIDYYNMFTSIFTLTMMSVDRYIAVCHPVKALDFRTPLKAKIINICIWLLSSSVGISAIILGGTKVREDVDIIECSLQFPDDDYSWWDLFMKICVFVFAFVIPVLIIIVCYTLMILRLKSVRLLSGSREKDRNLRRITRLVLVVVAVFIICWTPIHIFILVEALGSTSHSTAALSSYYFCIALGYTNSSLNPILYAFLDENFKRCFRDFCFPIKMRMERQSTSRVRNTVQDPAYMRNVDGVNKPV
T2 sequence (A0ACM8Q262 1-400): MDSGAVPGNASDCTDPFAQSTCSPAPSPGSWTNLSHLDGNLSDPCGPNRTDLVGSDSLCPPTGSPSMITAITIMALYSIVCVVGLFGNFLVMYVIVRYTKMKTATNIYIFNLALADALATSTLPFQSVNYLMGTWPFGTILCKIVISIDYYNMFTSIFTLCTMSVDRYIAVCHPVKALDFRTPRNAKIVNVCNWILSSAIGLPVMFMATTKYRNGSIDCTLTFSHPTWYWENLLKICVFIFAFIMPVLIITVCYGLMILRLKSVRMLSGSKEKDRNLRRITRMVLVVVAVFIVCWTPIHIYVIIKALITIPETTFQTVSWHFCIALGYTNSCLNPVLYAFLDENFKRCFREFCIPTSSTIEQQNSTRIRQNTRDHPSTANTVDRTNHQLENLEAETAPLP

As for `C[C@@H]1Cc2ccccc2[C@H](CN2CCCC2)N1C(=O)Cc1ccc(Cl)c(Cl)c1` (relative stereo) [Example 1, 1-(pyrrolidin-1-yl)methyl-2-(3,4-dichlorophenyl)acetyl-3-methyl-1,2,3,4-tetrahydroisoquinoline hydrochloride 1/3 hydrate. Diastereoisomer CIS], the median effective dose (ED50) in assay [1] was 0.033 mg/kg; in assay [3], 0.021 mg/kg. Further, the Ki in assay [2] (setting [5]) was determined as 0.00265 µM; in assay [4] (setting [6]), 0.0149 µM.
For `C[C@H]1Cc2ccccc2[C@H](CN2CCCC2)N1C(=O)Cc1ccc(Cl)c(Cl)c1` (relative stereo) [Example 2, 1-(pyrrolidin-1-yl)methyl-2-(3,4-dichlorophenyl)acetyl-3-methyl-1,2,3,4-tetrahydroisoquinoline hydrochloride hemihydrate acetone. Diastereoisomer TRANS], in assay [1], the ED50 was above 1 mg/kg. In addition, the Ki in assay [2] (setting [5]) lay within 0.001 to 0.05 µM.
Take `C[C@@H]1CN(C(=O)Cc2ccc(Cl)c(Cl)c2)[C@@H](CN2CCCC2)c2ccccc21` (relative stereo) [Example 3, 1-(pyrrolidin-1-yl)methyl-2-(3,4-dichlorophenyl)acetyl-4-methyl-1,2,3,4-tetrahydroisoquinoline hydrochloride. Diastereoisomer TRANS]: the ED50 in assay [1] was 0.046 mg/kg; in assay [3] it was 0.036 mg/kg. The Ki in assay [2] (setting [5]) was 0.00479 µM; in assay [4] (setting [6]) it was 0.122 µM.
`C[C@H]1CN(C(=O)Cc2ccc(Cl)c(Cl)c2)[C@@H](CN2CCCC2)c2ccccc21` (relative stereo) [Example 4, 1-(pyrrolidin-1-yl)methyl-2-(3,4-dichlorophenyl)acetyl-4-methyl-1,2,3,4-tetrahydroisoquinoline hydrochloride. Diastereoisomer CIS]: the ED50 in assay [1] was 0.459 mg/kg; in assay [3] it was 0.282 mg/kg. The Ki in assay [2] (setting [5]) came to 0.014 µM; in assay [4] (setting [6]), 1.15 µM.
For `CC1Cc2ccccc2C(CN2CCCC2)N1C(=O)Cc1ccc(Cl)c(Cl)c1` (single isomer, unassigned) [Example 42, (-)-1-(pyrrolidin-1-yl)methyl-2-(3,4-dichlorophenyl)acetyl-3-methyl-1,2,3,4-tetrahydroisoquinoline D(-) tartrate], the ED50 in assay [1] is 0.021 mg/kg; in assay [3], 0.01 mg/kg. For the same molecule, the inhibition constant Ki came to 0.00223 µM in assay [2] (setting [5]) and 0.0111 µM in assay [4] (setting [6]).
Take `O=C(Cc1ccc(Cl)c(Cl)c1)N1CCc2c(O)cccc2C1CN1CCCC1` (stereo not shown) [Example 5, 1-(pyrrolidin-1-yl)methyl-2-(3,4-dichlorophenyl)acetyl-5-hydroxy-1,2,3,4-tetrahydroisoquinoline]: the ED50 was 0.009 mg/kg in assay [1] and 0.005 mg/kg in assay [3]. The Ki is 0.000423 µM in assay [2] (setting [5]) and 0.00069 µM in assay [4] (setting [6]).
Take `O=C(Cc1ccc(Cl)c(Cl)c1)N1CCc2c(Cl)cccc2C1CN1CCCC1` (stereo not shown) [Example 7, 1-(pyrrolidin-1-yl)methyl-2-(3,4-dichlorophenyl)acetyl-5-chloro-1,2,3,4-tetrahydroisoquinoline hydrochloride]: the ED50 in assay [1] was 0.836 mg/kg. Also, the results for the Ki in assay [2] and in assay [4] (setting [7]) were 0.0436 µM and 1.58 µM, respectively.
With `CN(C)CC1c2cccc(O)c2CCN1C(=O)Cc1ccc(Cl)c(Cl)c1` (stereo not shown) [Example 10, 1-dimethylaminomethyl-2-(3,4-dichlorophenyl) acetyl-5-hydroxy-1,2,3,4-tetrahydroisoquinoline.], the median effective dose (ED50) in assay [1] was 0.088 mg/kg. Moreover, the inhibition constant (Ki) in assay [2] (setting [5]) is 0.00042 µM; in assay [4] (setting [6]), 0.00367 µM.
As to `O=C(Cc1ccc(Cl)c(Cl)c1)N1CCc2cc(O)ccc2C1CN1CCCC1` (stereo not shown) [Example 16, 1-(pyrrolidin-1-yl)methyl-2-(3,4-dichlorophenyl)acetyl-6-hydroxy-1,2,3,4-tetrahydroisoquinoline.], the median effective dose (ED50) in assay [1] was 0.24 mg/kg. The figures for the inhibition constant Ki in assay [2] and in assay [4] (setting [7]) were 0.00154 µM and 0.102 µM, respectively.
Regarding `O=C(Cc1ccc(Cl)c(Cl)c1)N1CCc2cccc(Cl)c2C1CN1CCCC1` (stereo not shown) [Example 27, 1-(pyrrolidin-1-yl)methyl-2-(3,4-dichlorophenyl)acetyl-8-chloro-1,2,3,4-tetrahydroisoquinoline hydrochloride 1/4hydrate], the 50% effective dose (ED50) in assay [1] is 0.092 mg/kg. Further, the Ki in assay [2] was 0.00546 µM; in assay [4] (setting [7]), 0.369 µM.
Regarding `O=C(Cc1ccc(C(F)(F)F)cc1)N1CCc2c(O)cccc2C1CN1CCCC1` (stereo not shown) [Example 34, 1-(pyrrolidin-1-yl)methyl-2-(4-trifluoromethylphenyl)acetyl5-hydroxy-1,2,3,4-tetrahydroisoquinoline hydrochloride hemihydrate], the median effective dose (ED50) in assay [1] is 0.011 mg/kg; in assay [3] it was 0.0023 mg/kg. In addition, the inhibition constant (Ki) in assay [4] (setting [6]) was determined as 0.00059 µM.
Consider `COc1cccc2c1CCN(C(=O)Cc1ccc(C(F)(F)F)cc1)C2CN1CCCCC1` (stereo not shown) [Example 35, 1-(piperidin-1-yl)methyl-2-(4-trifluoromethylphenyl)acetyl5-methoxy-1,2,3,4-tetrahydroisoquinoline hydrochloride], for which the figures for the 50% effective dose (ED50) in assay [1] and in assay [3] were 0.689 mg/kg and 0.204 mg/kg, respectively. The inhibitory constant (Ki) in assay [4] (setting [7]) was around 1 µM.
Take `COc1cccc2c1CCN(C(=O)Cc1ccc(Cl)c(Cl)c1)C2CN1CCCCC1` (stereo not shown) [Example 36, 1-(piperidin-1-yl)methyl-2-(3,4-dichlorophenyl)acetyl-5-methoxy-1,2,3,4-tetrahydroisoquinoline hydrochloride]: the median effective dose (ED50) in assay [1] was 0.924 mg/kg; in assay [3] it was 0.163 mg/kg. Further, in assay [4] (setting [7]), the Ki was around 1 µM.
Regarding `O=C(Cc1ccc(C(F)(F)F)cc1)N1CCc2c(O)cccc2C1CN1CCCCC1` (stereo not shown) [Example 37, 1-(piperidin-1-yl)methyl-2-(4-trifluoromethylphenyl)acetyl5-hydroxy-1,2,3,4-tetrahydroisoquinoline hydrochloride], the 50% effective dose (ED50) in assay [1] was 0.007 mg/kg; in assay [3] it was 0.0013 mg/kg. In assay [4] (setting [6]), the Ki worked out at 0.00538 µM.
On the same counts, the results for `O=C(Cc1ccc(Cl)c(Cl)c1)N1CCc2c(O)cccc2C1CN1CCCCC1` (stereo not shown) [Example 38, 1-(piperidin-1-yl)methyl-2-(3,4-dichlorophenyl)acetyl-5-hydroxy-1,2,3,4-tetrahydroisoquinoline hydrochloride] are 0.01 mg/kg, 0.004 mg/kg and 0.0114 µM.
On the same counts, the results for `O=C(Cc1ccc(Cl)c(Cl)c1)N1CCc2c(ccc(O)c2O)C1CN1CCCC1` (stereo not shown) [Example 40, 1-(pyrrolidin-1-yl)methyl-2-(3,4-dichlorophenyl)acetyl-5,6-dihydroxy-1,2,3,4-tetrahydroisoquinoline hydrochloride] are 0.461 mg/kg, 0.429 mg/kg and 0.0492 µM.

The record behind these values is patent publication US4954509A, “Isoquinoline derivatives and their use as analgesics” (Dr. Lo. Zambeletti S.p.A., priority 1988, dated 1990).
